Laboratory results from ChEMBL document CHEMBL6087488, “Development of the First-in-Class FEM1B-Recruiting Histone Deacetylase Degraders” (J Med Chem, 2025).
One block for each compound: values may come before it. Activity calls are given as the source filed them. The calls are words filed in the database; no cut-off is given here.

Key:
MM1.S [1] = experiment: Antiproliferative activity against human MM1.S cells assessed as cell viability measured after 72 hrs by CellTiter-Glo cell viability assay; format: functional, cell-based
[2] = molecular target: T1, Protein fem-1 homolog B/Histone deacetylase 1 (Homo sapiens, UniProt Q13547+Q9UK73); experiment: PROTAC activity at FEM1B/HDAC1 in human MM1.S cell lysate assessed as neddylation-dependent protein degradation at 1 uM measured after 24 hrs by Western immunoassay; format: subcellular
Target sequence in this assay (Q13547 whole entry, looked up): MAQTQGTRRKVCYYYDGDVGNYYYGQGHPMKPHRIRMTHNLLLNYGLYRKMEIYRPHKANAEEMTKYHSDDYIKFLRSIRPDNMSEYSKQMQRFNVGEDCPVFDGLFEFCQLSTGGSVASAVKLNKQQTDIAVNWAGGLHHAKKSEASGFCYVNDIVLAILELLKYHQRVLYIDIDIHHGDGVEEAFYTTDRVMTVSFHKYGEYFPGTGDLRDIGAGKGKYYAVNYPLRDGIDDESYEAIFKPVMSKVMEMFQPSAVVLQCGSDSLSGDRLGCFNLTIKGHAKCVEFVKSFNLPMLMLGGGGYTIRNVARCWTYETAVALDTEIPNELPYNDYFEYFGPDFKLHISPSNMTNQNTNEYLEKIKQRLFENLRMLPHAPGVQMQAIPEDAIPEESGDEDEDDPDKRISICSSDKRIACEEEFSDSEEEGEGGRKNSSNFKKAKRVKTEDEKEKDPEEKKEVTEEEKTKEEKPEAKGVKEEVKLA
Target sequence in this assay (Q9UK73 whole entry, looked up): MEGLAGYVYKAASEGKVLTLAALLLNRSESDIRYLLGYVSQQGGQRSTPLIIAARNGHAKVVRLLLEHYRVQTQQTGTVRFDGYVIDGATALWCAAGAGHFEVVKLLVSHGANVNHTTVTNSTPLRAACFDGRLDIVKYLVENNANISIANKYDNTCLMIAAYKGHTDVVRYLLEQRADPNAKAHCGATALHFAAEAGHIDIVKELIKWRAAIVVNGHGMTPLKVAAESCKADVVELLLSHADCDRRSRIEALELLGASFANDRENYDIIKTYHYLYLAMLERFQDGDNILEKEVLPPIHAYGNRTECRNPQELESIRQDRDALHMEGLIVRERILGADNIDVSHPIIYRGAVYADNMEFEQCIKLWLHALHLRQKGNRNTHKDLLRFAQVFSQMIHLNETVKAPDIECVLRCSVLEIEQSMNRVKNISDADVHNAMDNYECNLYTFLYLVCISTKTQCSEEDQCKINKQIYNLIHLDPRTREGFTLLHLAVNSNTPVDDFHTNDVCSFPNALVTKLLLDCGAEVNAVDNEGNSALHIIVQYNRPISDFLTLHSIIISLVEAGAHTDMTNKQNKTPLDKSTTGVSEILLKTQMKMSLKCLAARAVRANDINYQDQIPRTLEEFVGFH

[3] = molecular target: T1, Protein fem-1 homolog B/Histone deacetylase 1; experiment: PROTAC activity at FEM1B/HDAC1 in human MV4-11 cell lysate assessed as protein degradation at 10 uM measured after 24 hrs by Western immunoassay relative to control; format: subcellular
Target sequence in this assay (Q13547 whole entry, looked up): as the sequence (Q13547 whole entry, looked up) above
Target sequence in this assay (Q9UK73 whole entry, looked up): as the sequence (Q9UK73 whole entry, looked up) above

[4] = molecular target: T1, Protein fem-1 homolog B/Histone deacetylase 1; experiment: PROTAC activity at FEM1B/HDAC1 in human MDA-MB-231 cell lysate assessed as protein degradation at 10 uM measured after 24 hrs by Western immunoassay relative to control; format: subcellular
Target sequence in this assay (Q13547 whole entry, looked up): as the sequence (Q13547 whole entry, looked up) above
Target sequence in this assay (Q9UK73 whole entry, looked up): as the sequence (Q9UK73 whole entry, looked up) above

[5] = molecular target: T1, Protein fem-1 homolog B/Histone deacetylase 1; experiment: PROTAC activity at FEM1B/HDAC1 in human U-87 MG cell lysate assessed as protein degradation at 10 uM measured after 24 hrs by Western immunoassay relative to control; format: subcellular
Target sequence in this assay (Q13547 whole entry, looked up): as the sequence (Q13547 whole entry, looked up) above
Target sequence in this assay (Q9UK73 whole entry, looked up): as the sequence (Q9UK73 whole entry, looked up) above

MV4-11 = experiment: Antiproliferative activity against human MV4-11 cells assessed as cell viability measured after 72 hrs incubation by MTT assay; format: functional, cell-based; details: MV4-11, 72 h
MDA-MB-231 [6] = experiment: Antiproliferative activity against human MDA-MB-231 cells assessed as cell viability up to 50 uM measured after 72 hrs incubation by MTT assay relative to control; format: functional
U-87 MG [7] = experiment: Antiproliferative activity against human U-87 MG cells assessed as cell viability up to 50 uM measured after 72 hrs incubation by MTT assay relative to control; format: functional, U-87MG ATCC
MM1.S [8] = experiment: Induction of cell cycle arrest in human MM1.S cells assessed as reduction in cells at […] phase at 10 uM measured after 48 hrs by propidium iodide based flow cytometry; format: functional
MM1.S [9] = experiment: Induction of cell cycle arrest in human MM1.s cells assessed as increase in cells at Sub-G1 phase at 10 uM measured after 48 hrs by propidium iodide based flow cytometry; format: functional
MM1.S [10] = experiment: Induction of apoptosis in human MM1.S cells assessed as increase in early apoptotic cells at 10 uM measured after 48 hrs by annexin V-FITC/PI staining based assay; format: functional, cell-based
MM1.S [11] = experiment: Induction of apoptosis in human MM1.S cells assessed as increase in late apoptotic cells at 10 uM measured after 48 hrs by annexin V-FITC/PI staining based assay; format: functional, cell-based
MM1.S [12] = experiment: Antiproliferative activity against human MM1.S cells assessed as cell viability up to 50 uM measured after 72 hrs incubation by MTT assay; format: functional
[13] = molecular target: T1, Protein fem-1 homolog B/Histone deacetylase 1; experiment: PROTAC activity at FEM1B/HDAC1 in human MM1.S cell lysate assessed as initial degradation measured after 24 hrs by Western immunoassay; format: subcellular
Target sequence in this assay (Q13547 whole entry): as the sequence (Q13547 whole entry, looked up) above
Target sequence in this assay (Q9UK73 whole entry): as the sequence (Q9UK73 whole entry, looked up) above

Histone deacetylase 1 = Histone deacetylase 1 (Homo sapiens, UniProt Q13547); experiment: Inhibition of human recombinant HDAC1 using ZMAL (Z-(Ac)Lys-AMC) as substrate incubated for 90 mins by fluorescence based assay
Sequence of Histone deacetylase 1 (Q13547 whole entry): as the sequence (Q13547 whole entry, looked up) above

Histone deacetylase 2 = Histone deacetylase 2 (Homo sapiens, UniProt Q92769); experiment: Inhibition of human HDAC2 using ZMAL (Z-(Ac)Lys-AMC) as substrate incubated for 90 mins by fluorescence based assay
Sequence of Histone deacetylase 2 (Q92769 whole entry): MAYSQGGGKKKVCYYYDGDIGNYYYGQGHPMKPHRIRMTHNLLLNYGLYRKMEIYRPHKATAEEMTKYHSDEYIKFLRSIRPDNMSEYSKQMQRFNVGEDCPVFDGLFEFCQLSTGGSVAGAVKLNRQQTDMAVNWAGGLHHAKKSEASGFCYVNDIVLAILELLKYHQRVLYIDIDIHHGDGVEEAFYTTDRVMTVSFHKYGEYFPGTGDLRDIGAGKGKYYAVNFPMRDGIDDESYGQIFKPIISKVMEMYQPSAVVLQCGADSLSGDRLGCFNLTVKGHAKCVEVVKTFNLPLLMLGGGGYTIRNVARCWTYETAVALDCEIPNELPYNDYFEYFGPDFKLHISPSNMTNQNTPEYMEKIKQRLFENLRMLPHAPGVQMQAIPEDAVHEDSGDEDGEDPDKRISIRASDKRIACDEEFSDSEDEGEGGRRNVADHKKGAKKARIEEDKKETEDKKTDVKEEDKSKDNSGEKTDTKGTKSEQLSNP

Histone deacetylase 4 = Histone deacetylase 4 (Homo sapiens, UniProt P56524); experiment: Inhibition of human HDAC4 using Boc-Lys(Tfa)-AMC as substrate incubated for 90 mins by fluorescence based assay; details: read-out: IC50
Sequence of Histone deacetylase 4 (P56524 whole entry): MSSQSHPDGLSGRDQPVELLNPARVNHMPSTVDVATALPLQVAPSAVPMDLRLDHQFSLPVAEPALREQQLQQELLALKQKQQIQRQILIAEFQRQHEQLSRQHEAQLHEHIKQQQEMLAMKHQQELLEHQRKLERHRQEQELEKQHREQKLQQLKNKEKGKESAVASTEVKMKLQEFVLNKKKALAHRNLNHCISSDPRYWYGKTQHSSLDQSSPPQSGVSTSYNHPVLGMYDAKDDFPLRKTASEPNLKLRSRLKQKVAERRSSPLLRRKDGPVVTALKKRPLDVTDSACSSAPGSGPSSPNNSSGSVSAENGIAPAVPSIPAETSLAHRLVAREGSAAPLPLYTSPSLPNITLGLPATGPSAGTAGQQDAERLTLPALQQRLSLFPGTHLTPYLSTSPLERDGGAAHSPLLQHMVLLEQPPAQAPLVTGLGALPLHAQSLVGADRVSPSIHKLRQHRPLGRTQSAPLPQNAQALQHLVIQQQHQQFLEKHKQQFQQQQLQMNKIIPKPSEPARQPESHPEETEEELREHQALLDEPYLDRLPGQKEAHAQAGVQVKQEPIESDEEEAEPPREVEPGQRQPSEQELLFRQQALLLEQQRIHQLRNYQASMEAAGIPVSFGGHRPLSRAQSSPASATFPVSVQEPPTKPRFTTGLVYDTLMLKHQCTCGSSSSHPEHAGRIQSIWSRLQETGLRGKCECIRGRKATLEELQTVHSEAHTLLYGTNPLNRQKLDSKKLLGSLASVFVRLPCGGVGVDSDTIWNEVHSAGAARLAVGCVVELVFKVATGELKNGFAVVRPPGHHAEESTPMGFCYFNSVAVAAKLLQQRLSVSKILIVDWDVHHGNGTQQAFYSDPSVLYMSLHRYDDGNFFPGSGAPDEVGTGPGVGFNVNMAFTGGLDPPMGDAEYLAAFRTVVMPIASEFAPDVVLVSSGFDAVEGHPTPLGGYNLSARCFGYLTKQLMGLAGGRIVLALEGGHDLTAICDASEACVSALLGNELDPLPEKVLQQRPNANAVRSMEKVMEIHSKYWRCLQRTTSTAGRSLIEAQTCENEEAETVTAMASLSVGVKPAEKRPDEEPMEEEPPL

[14] = molecular target: T2, Protein deacetylase HDAC6 (Homo sapiens, UniProt Q9UBN7); experiment: Inhibition of human HDAC6 using ZMAL (Z-(Ac)Lys-AMC) as substrate incubated for 90 mins by fluorescence based assay
T2 sequence (Q9UBN7 whole entry): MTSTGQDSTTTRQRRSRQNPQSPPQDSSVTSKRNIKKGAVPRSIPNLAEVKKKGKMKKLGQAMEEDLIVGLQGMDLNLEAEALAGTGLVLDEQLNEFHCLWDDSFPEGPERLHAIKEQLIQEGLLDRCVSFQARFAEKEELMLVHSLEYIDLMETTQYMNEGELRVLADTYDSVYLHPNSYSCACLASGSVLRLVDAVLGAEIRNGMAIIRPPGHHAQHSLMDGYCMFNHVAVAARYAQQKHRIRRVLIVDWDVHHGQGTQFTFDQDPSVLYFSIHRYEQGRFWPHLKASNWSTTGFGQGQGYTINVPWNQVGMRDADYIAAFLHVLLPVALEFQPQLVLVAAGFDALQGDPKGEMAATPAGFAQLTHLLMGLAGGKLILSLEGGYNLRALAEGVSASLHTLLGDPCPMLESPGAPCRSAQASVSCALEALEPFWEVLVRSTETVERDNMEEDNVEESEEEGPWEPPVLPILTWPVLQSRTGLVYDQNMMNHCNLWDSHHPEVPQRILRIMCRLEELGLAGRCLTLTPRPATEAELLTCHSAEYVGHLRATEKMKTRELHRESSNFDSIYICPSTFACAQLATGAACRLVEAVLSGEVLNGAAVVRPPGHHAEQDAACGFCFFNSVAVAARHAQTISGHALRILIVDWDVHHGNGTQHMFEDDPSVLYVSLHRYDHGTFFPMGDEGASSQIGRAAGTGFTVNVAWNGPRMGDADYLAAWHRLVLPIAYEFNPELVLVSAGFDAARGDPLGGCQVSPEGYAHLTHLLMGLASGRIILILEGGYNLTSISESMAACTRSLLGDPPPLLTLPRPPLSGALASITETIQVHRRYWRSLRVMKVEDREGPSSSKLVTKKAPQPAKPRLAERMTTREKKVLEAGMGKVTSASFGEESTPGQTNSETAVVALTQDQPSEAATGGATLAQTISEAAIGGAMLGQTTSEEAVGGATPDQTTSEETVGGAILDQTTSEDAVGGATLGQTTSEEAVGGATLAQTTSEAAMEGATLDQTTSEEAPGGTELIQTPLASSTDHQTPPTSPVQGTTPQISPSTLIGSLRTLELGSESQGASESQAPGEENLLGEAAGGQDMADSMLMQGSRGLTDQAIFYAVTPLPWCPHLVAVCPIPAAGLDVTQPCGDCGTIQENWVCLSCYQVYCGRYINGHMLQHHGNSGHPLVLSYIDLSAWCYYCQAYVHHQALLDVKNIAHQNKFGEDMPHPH

MDA-MB-231 [15] = experiment: Antiproliferative activity against human MDA-MB-231 cells assessed as cell viability measured after 72 hrs incubation by MTT assay; format: functional, cell-based; details: MDA-MB-231, 72 h
U-87 MG [16] = experiment: Antiproliferative activity against human U-87 MG cells assessed as cell viability measured after 72 hrs incubation by MTT assay; format: functional, cell-based, U-87MG ATCC
[17] = molecular target: T1, Protein fem-1 homolog B/Histone deacetylase 1; experiment: PROTAC activity at FEM1B/HDAC1 in human MM1.S cell lysate assessed as initial degradation at 1 uM measured after 24 hrs by Western immunoassay; format: subcellular
Target sequence in this assay (Q13547 whole entry, looked up): as the sequence (Q13547 whole entry, looked up) above
Target sequence in this assay (Q9UK73 whole entry, looked up): as the sequence (Q9UK73 whole entry, looked up) above

[18] = molecular target: T1, Protein fem-1 homolog B/Histone deacetylase 1; experiment: PROTAC activity at FEM1B/HDAC1 in human MM.1S cell lysate assessed as maximal initial degradation at measured after 24 hrs by Western immunoassay relative to control; format: subcellular; details: MM1.S
Target sequence in this assay (Q13547 whole entry, looked up): as the sequence (Q13547 whole entry, looked up) above
Target sequence in this assay (Q9UK73 whole entry, looked up): as the sequence (Q9UK73 whole entry, looked up) above

[19] = molecular target: T1, Protein fem-1 homolog B/Histone deacetylase 1; experiment: PROTAC activity at FEM1B/HDAC1 in human MM1.S cell lysate assessed as protein degradation at 1 uM measured after 24 hrs by Western immunoassay; format: subcellular
[20] = molecular target: Protein fem-1 homolog B/Histone deacetylase 2 (Homo sapiens) (UniProt Q92769+Q9UK73); experiment: PROTAC activity at FEM1B/HDAC2 in human MM1.S cell lysate assessed as protein degradation at 1 uM measured after 24 hrs by Western immunoassay; format: subcellular
[21] = molecular target: Protein fem-1 homolog B/Histone deacetylase 3 (Homo sapiens) (UniProt O15379+Q9UK73); experiment: PROTAC activity at FEM1B/HDAC3 in human MM1.S cell lysate assessed as protein degradation at 1 uM measured after 24 hrs by Western immunoassay; format: subcellular
[22] = molecular target: Protein fem-1 homolog B/Protein deacetylase HDAC6 (Homo sapiens) (UniProt Q9UBN7+Q9UK73); experiment: PROTAC activity at FEM1B/HDAC6 in human MM1.S cell lysate assessed as protein degradation at 1 uM measured after 24 hrs by Western immunoassay; format: subcellular
[23] = molecular target: Protein fem-1 homolog B/Histone deacetylase 4 (Homo sapiens) (UniProt P56524+Q9UK73); experiment: PROTAC activity at FEM1B/HDAC4 in human MM1.S cell lysate assessed as protein degradation at 1 uM measured after 24 hrs by Western immunoassay; format: subcellular
[24] = molecular target: Protein fem-1 homolog B/Histone deacetylase 8 (Homo sapiens) (UniProt Q9BY41+Q9UK73); experiment: PROTAC activity at FEM1B/HDAC8 in human MM1.S cell lysate assessed as protein degradation at 1 uM measured after 24 hrs by Western immunoassay; format: subcellular
MM1.S [25] = experiment: Antiproliferative activity against human MM1.S cells assessed as cell viability measured after 72 hrs incubation by MTT assay; format: functional, cell-based

EC50 (MM1.S [1]; mm1.s): 5.02 µM
Compound: N#CCCN(C(=O)CCl)c1ccc2c(c1)OCCN2CC(=O)NCC(=O)Nc1ccc(C(=O)NCCCCCCC(=O)NO)cc1 [listing 2 of 2 here]

EC50 (MM1.S [1]; Homo sapiens, MM1.S, 72 h): 1.52 µM
Compound: N#CCCN(C(=O)CCl)c1ccc2c(c1)OCCN2CC(=O)NCCCCCCCCCCCC(=O)Nc1ccc(C(=O)NCCCCCCC(=O)NO)cc1

Continued, compound first:

Compound: N#CCCN(C(=O)CCl)c1ccc2c(c1)OCCN2CC(=O)NCCOCCOCCOCCOCCC(=O)Nc1ccc(C(=O)NCCCCCCC(=O)NO)cc1
EC50 (MM1.S [1]; Homo sapiens, MM1.S, 72 h): 42.3 µM

Compound: CCC(=O)N(CCC#N)c1ccc2c(c1)OCCN2CC(=O)NCC(=O)Nc1ccc(C(=O)NCCCCCCC(=O)NO)cc1.O=C(O)C(F)(F)F
Activity [2]: inactive
Activity [3]: inactive
Activity [4]: inactive
Activity [5]: inactive
EC50 (MV4-11): 14100 nM
Activity (MDA-MB-231 [6]): <=25%
Activity (U-87 MG [7]): <=25%
Activity (MM1.S [8]): inactive
Activity (MM1.S [9]): inactive
Activity (MM1.S [10]): inactive
Activity (MM1.S [11]): inactive
Activity (MM1.S [12]): <=25%

Compound: N#CCCN(C(=O)CCl)c1ccc2c(c1)OCCN2CC(=O)NCCCCCC(=O)Nc1ccc(C(=O)NCCCCCCC(=O)NO)cc1
EC50 (MM1.S [1]; Homo sapiens, MM1.S, 72 h): 7.39 µM

Compound: N#CCCN(C(=O)CCl)c1ccc2c(c1)OCCN2CC(=O)NCC(=O)Nc1ccc(C(=O)NCCCCCCC(=O)NO)cc1 [listing 1 of 2 here]
EC50 (MM1.S [1]; mm1.s): 2.33 µM
DC50 [13]: 257 nM
IC50 (Histone deacetylase 1): 74 nM
IC50 (Histone deacetylase 2): 156 nM
IC50 (Histone deacetylase 4): 13.3 µM
IC50 [14]: 9 nM
EC50 (MV4-11): 958 nM
EC50 (MDA-MB-231 [15]): 26.5 µM
EC50 (U-87 MG [16]): 37.4 µM

Compound: N#CCCN(C(=O)CCl)c1ccc2c(c1)OCCN2CC(=O)NC[C@H]1CC[C@H](C(=O)Nc2ccc(C(=O)NCCCCCCC(=O)NO)cc2)CC1
EC50 (MM1.S [1]; Homo sapiens, MM1.S, 72 h): 6.43 µM

Compound: N#CCCN(C(=O)CCl)c1ccc2c(c1)OCCN2CC(=O)N1CCC(C(=O)Nc2ccc(C(=O)NCCCCCCC(=O)NO)cc2)CC1
EC50 (MM1.S [1]; Homo sapiens, MM1.S, 72 h): 4.73 µM
Activity [17]: 61.9%
DC50 [13]: 482 nM
Emax [18]: 79.8%
IC50 (Histone deacetylase 1): 94 nM
IC50 (Histone deacetylase 2): 196 nM
IC50 (Histone deacetylase 4): 8.6 µM
IC50 [14]: 6 nM
Activity [19]: Active
Activity [20]: Active
Activity [21]: Active
Activity [22]: inactive
Activity [23]: inactive
Activity [24]: inactive
EC50 (MM1.S [25]): 4.73 µM
EC50 (MV4-11): 1140 nM
EC50 (MDA-MB-231 [15]): 8.68 µM
EC50 (U-87 MG [16]): 66 µM
Activity (MM1.S [8]): Active
Activity (MM1.S [9]): Active
Activity (MM1.S [10]): Active
Activity (MM1.S [11]): Active
